Experimental data published in patent US11466273B2, “Monocarboxylate transporter 4 (MCT4) antisense oligonucleotide (ASO) inhibitors for use as therapeutics in the treatment of cancer” (THE UNIVERSITY OF BRITISH COLUMBIA, priority 2015, dated 2022).
Strand notation (5' to 3'): a small letter for the sugar, then the base; units joined by * are phosphorothioate-linked, units joined directly phosphodiester-linked; [ ] holds rarer units or linkages, { } end groups; capitals alone tell only the bases. d = 2'-deoxy (DNA)

What follows are substances tested on MCT4 (assay: Percent inhibition of MCT4 by MCT4 ASOs (knock-down after transfection, qPCR/Western blot)). Settings: Table A; ASOs transfected at 100 nM for 48 hours unless otherwise indicated.
Format: cell-based, human
Experimental: First-generation phosphorothioate-modified ASOs against human MCT4 were rationally designed by selecting sequences containing favourable motifs while excluding unfavourable ones (Matveeva et al., 2000). Specificity of MCT4-targeting sequences, compared to human and mouse genes (at least 3 of 20 bases mismatched), was evaluated using BLAST. Ten sequences SEQ ID No: 1, 4, 5, 9, 11, 30, 36, 37, 40 and 41 (see TABLE A) distributed throughout the length of the transcript with perfect complementarity to all human MCT4 transcript variants (NM_001042422.2, NM_001042423.2, NM_001206950.1, NM_001206951.1, NM_001206952.1, and NM_004207.3) were selected and synthesized by Eurofins MWG Operon. The knock-down efficiencies of these ten ASOs were tested by determining target mRNA and protein expression 48 hours after transfection of cells using qPCR and Western blotting. Two candidate ASOs (#1 and #14—SEQ ID NOs: 1 and 5, respectively) were selected for further studies. Sequences: ASO #1 (SEQ ID NO: 1), 5′-[…]-3′; ASO #14 (SEQ ID NO: 5), 5′-[…]-3′; a published non-targeting control ASO, 5′-[…]-3′ (Mullick et al., 2011; Samuel et al., 2006).
Cells were transfected in 6-well plates with ASOs at 100 nM for 48 hours (unless otherwise indicated) using Oligofectamine™ (Invitrogen™, Carlsbad, Calif.) or with MCT4-targeting siRNAs and controls (Dharmacon™, Chicago, Ill.) at 50 nM for 48 hours using Lipofectamine™ 2000 (Invitrogen™), following the manufacturer's instructions.
Total RNA was isolated using the RNeasy Mini Kit™ (Qiagen Inc.™, Hilden, Germany) and cDNA synthesized using the QuantiTect Reverse Transcription Kit™ (Qiagen™). Primers were designed using Primer-BLAST™. qRT-PCR reactions using KAPA SYBR Fast Universal™ (Kapa Biosystems™, Woburn, Mass.) were performed in triplicate in a ViiA 7 Real-Time PCR™ system (Applied Biosystems™, Foster City, Calif.). Target genes were normalized to a geometric average of 3 internal reference genes (Vandesompele et al., 2002).
Cells were harvested and lysed in RIPA buffer (50 mM Tris-Cl pH 7.4, 150 mM NaCl, 1% Igepal, 0.5% Na-deoxycholate, 0.1% SDS) supplemented with a complete protease inhibitor cocktail (Roche, Nutley, N.J.). The protein concentration of the lysate was determined by Pierce BCA Protein Assay™ (Thermo Scientific™, Waltham, Mass.). The lysate was run on 8% SDS polyacrylamide gel (20 ug of protein per lane) and proteins were transferred onto PVDF membrane (Millipore™, Billerica, Mass.). The blot was blocked with the Odyssey™ blocking buffer (Li-cor Biosciences™) and probed with anti-MCT4 antibody. Vinculin was used as a loading control. Following overnight incubation at 4° C., the primary antibody was probed with the corresponding secondary antibody and detected using the Odyssey Infrared Imaging System™ (Li-cor Biosciences™) and Image Studio Version 3.1™ (Li-cor Biosciences™). Densitometry analysis was done using ImageJ (U.S. National Institutes of Health, Bethesda, Md.).
“1 (TCCCATGGCCAGGAGGGTTG; antisense; DNA, all phosphorothioate, methylation of C not given here; listed as Homo sapiens) [compound 1]” was tested, and the “% MCT4 Inhibition” value was 65.52%. With “2 (GTCCCGGAAGACGCTCAGGT; antisense; DNA, all phosphorothioate, methylation of C not given here; listed as Homo sapiens) [compound 2]” the “% MCT4 Inhibition” value was 86.33%. “3 (AAGGACGCAGCCACCATGCC; antisense; DNA, all phosphorothioate, methylation of C not given here; listed as Homo sapiens) [compound 3]” was tested, and the “% MCT4 Inhibition” value was 71.19%. In the case of “4 (TTGGCGTAGCTCACCACGAA; antisense; DNA, all phosphorothioate, methylation of C not given here; listed as Homo sapiens) [compound 4]”, the “% MCT4 Inhibition” value is reported as 77.13%. “5 (AGATGCAGAAGACCACGAGG; antisense; DNA, all phosphorothioate, methylation of C not given here; listed as Homo sapiens) [compound 5]” was tested, and the “% MCT4 Inhibition” value was 78.16%. For “6 (CCACTCTGGAATGACACGGT; antisense; DNA, all phosphorothioate, methylation of C not given here; listed as Homo sapiens) [compound 6]”, the “% MCT4 Inhibition” value was 78.67%. With “7 (GTAGGAGAAGCCAGTGATGAC; antisense; DNA, all phosphorothioate, methylation of C not given here; listed as Homo sapiens) [compound 7]” the “% MCT4 Inhibition” value was 66.31%. For “8 (AGCATGGCCAGCAGGATGGA; antisense; DNA, all phosphorothioate, methylation of C not given here; listed as Homo sapiens) [compound 8]”, the “% MCT4 Inhibition” value was 80.77%. For “9 (GGCTGGAAGTTGAGTGCCAA; antisense; DNA, all phosphorothioate, methylation of C not given here; listed as Homo sapiens) [compound 9]”, the “% MCT4 Inhibition” value was 76.03%. “10 (CATGCCGTAGGAGATGCCAA; antisense; DNA, all phosphorothioate, methylation of C not given here; listed as Homo sapiens) [compound 10]” was tested, and the “% MCT4 Inhibition” value was 76.51%. “11 (CTCAGGCTGTGGCTCTTTGG; antisense; DNA, all phosphorothioate, methylation of C not given here; listed as Homo sapiens) [compound 11]” was tested, and the “% MCT4 Inhibition” value was 63.01%. “12 (TAGCGGTTCAGCATGATGA; antisense; DNA, all phosphorothioate, methylation of C not given here; listed as Homo sapiens) [compound 12]” was tested, and the “% MCT4 Inhibition” value was 70.36%. “13 (AGCACGGCCCAGCCCCAGCC; antisense; DNA, all phosphorothioate, methylation of C not given here; listed as Homo sapiens) [compound 13]” was tested, and the “% MCT4 Inhibition” value was 66.85%. For “14 (GAGCTCCTTGAAGAAGACACT; antisense; DNA, all phosphorothioate, methylation of C not given here; listed as Homo sapiens) [compound 14]”, the “% MCT4 Inhibition” value was 72.00%. For “15 (dC*dA*dG*dG*dA*dT*dG*dG*dA*dG*dG*dA*dG*dA*dT*dC*dC*dA*dG*dG; antisense; listed as Homo sapiens) [compound 15]”, the “% MCT4 Inhibition” value was 75.58%. For “16 (dA*dG*dA*dC*dC*dC*dC*dC*dC*dA*dC*dA*dA*dG*dC*dA*dT*dG*dA*dC; antisense; listed as Homo sapiens) [compound 16]”, the “% MCT4 Inhibition” value was 55.47%. In the case of “17 (dG*dA*dA*dG*dT*dT*dG*dA*dG*dT*dG*dC*dC*dA*dA*dA*dC*dC*dC*dA*dA; antisense; listed as Homo sapiens) [compound 17]”, the “% MCT4 Inhibition” value is reported as 70.93%. For “18 (dC*dC*dC*dG*dT*dT*dG*dG*dC*dC*dA*dT*dG*dG*dG*dG*dC*dG*dC*dC; antisense; listed as Homo sapiens) [compound 18]”, the “% MCT4 Inhibition” value was 71.14%. In the case of “19 (dG*dC*dC*dA*dG*dC*dC*dC*dG*dT*dT*dG*dG*dC*dC*dA*dT*dG*dG*dG; antisense; listed as Homo sapiens) [compound 19]”, the “% MCT4 Inhibition” value is reported as 80.26%. For “20 (dA*dG*dG*dA*dA*dG*dA*dC*dA*dG*dG*dG*dC*dT*dA*dC*dC*dT*dG*dC; antisense; listed as Homo sapiens) [compound 20]”, the “% MCT4 Inhibition” value was 66.26%. For “21 (dG*dC*dA*dC*dA*dC*dA*dG*dG*dA*dA*dG*dA*dC*dA*dG*dG*dG*dC*dT; antisense; listed as Homo sapiens) [compound 21]”, the “% MCT4 Inhibition” value was 60.36%. With “22 (dC*dA*dG*dG*dG*dC*dA*dC*dA*dC*dA*dG*dG*dA*dA*dG*dA*dC*dA*dG; antisense; listed as Homo sapiens) [compound 22]” the “% MCT4 Inhibition” value was 79.96%. In the case of “23 (dC*dA*dG*dC*dA*dG*dT*dT*dG*dA*dG*dC*dA*dG*dC*dA*dG*dG*dC*dC; antisense; listed as Homo sapiens) [compound 23]”, the “% MCT4 Inhibition” value is reported as 65.41%. “24 (dG*dA*dC*dC*dT*dG*dT*dC*dC*dC*dG*dT*dA*dG*dA*dG*dC*dA*dT*dG; antisense; listed as Homo sapiens) [compound 24]” was tested, and the “% MCT4 Inhibition” value was 47.24%. “25 (dT*dT*dC*dC*dC*dA*dA*dG*dC*dC*dC*dC*dG*dC*dC*dA*dC*dG*dA*dA; antisense; listed as Homo sapiens) [compound 25]” was tested, and the “% MCT4 Inhibition” value was 22.88%. “26 (dA*dA*dT*dG*dC*dT*dC*dC*dA*dC*dC*dT*dC*dC*dC*dG*dC*dA*dA*dG; antisense; listed as Homo sapiens) [compound 26]” was tested, and the “% MCT4 Inhibition” value was 9.55%. In the case of “27 (dA*dC*dC*dT*dC*dC*dC*dC*dG*dT*dT*dT*dT*dT*dC*dT*dC*dA*dG*dG; antisense; listed as Homo sapiens) [compound 27]”, the “% MCT4 Inhibition” value is reported as 3.17%. “28 (dT*dG*dT*dG*dA*dA*dC*dC*dA*dC*dC*dT*dC*dC*dC*dC*dG*dT*dT*dT; antisense; listed as Homo sapiens) [compound 28]” was tested, and the “% MCT4 Inhibition” value was 29.91%. “29 (dT*dC*dT*dG*dT*dA*dC*dC*dT*dC*dC*dT*dC*dC*dC*dT*dG*dT*dG*dC; antisense; listed as Homo sapiens) [compound 29]” was tested, and the “% MCT4 Inhibition” value was 16.31%. “30 (dG*dA*dA*dT*dG*dA*dC*dA*dC*dG*dG*dT*dT*dC*dC*dC*dA*dC*dC*dC; antisense; listed as Homo sapiens) [compound 30]” was tested, and the “% MCT4 Inhibition” value was 25.51%. “31 (dG*dC*dC*dC*dA*dC*dC*dC*dA*dC*dC*dC*dT*dC*dC*dC*dA*dT*dT*dA; antisense; listed as Homo sapiens) [compound 31]” was tested, and the “% MCT4 Inhibition” value was -43.4%. For “32 (dA*dA*dG*dA*dG*dA*dC*dC*dC*dC*dC*dC*dA*dC*dA*dA*dG*dC*dA*dT; antisense; listed as Homo sapiens) [compound 32]”, the “% MCT4 Inhibition” value was 18.67%. “33 (dC*dC*dC*dA*dC*dC*dA*dT*dG*dC*dC*dG*dT*dA*dG*dG*dA*dG*dA*dT; antisense; listed as Homo sapiens) [compound 33]” was tested, and the “% MCT4 Inhibition” value was 49.00%. “34 (dA*dG*dT*dC*dC*dA*dC*dC*dC*dC*dC*dG*dA*dG*dT*dC*dT*dG*dC*dA; antisense; listed as Homo sapiens) [compound 34]” was tested, and the “% MCT4 Inhibition” value was 20.5%. For “35 (dC*dT*dT*dC*dA*dC*dC*dG*dC*dA*dG*dA*dT*dC*dC*dA*dC*dT*dC*dT; antisense; listed as Homo sapiens) [compound 35]”, the “% MCT4 Inhibition” value was -10.07%. With “36 (dA*dA*dC*dA*dC*dT*dC*dC*dA*dC*dC*dC*dA*dC*dA*dC*dG*dC*dA*dG; antisense; listed as Homo sapiens) [compound 36]” the “% MCT4 Inhibition” value was 9.33%. In the case of “37 (dC*dC*dA*dG*dC*dC*dA*dC*dT*dC*dA*dG*dA*dC*dA*dC*dT*dT*dG*dT; antisense; listed as Homo sapiens) [compound 37]”, the “% MCT4 Inhibition” value is reported as 33.14%.

Same assay, conditions: Table B; SEQ ID NO 1 and 16 mer truncations
In the case of “1 (TCCCATGGCCAGGAGGGTTG; antisense; DNA, all phosphorothioate, methylation of C not given here; listed as Homo sapiens) [compound 1]”, the “% MCT4 Inhibition” value is reported as 65.52%.
